Activity calls are given as the source filed them. No cut-off for these calls is given here.

Assay [1] concerns the target T1, Tyrosyl-DNA phosphodiesterase 1 (Homo sapiens, UniProt Q9NUW8). As to the kind of experiment: Inhibition of recombinant TDP1 (unknown origin) assessed as substrate cleavage using 5'-Cy5-GATCTAAAAGACTT-pY-3' DNA substrate at 111 uM measured after 15 mins by gel-based assay.
The target of assay [2] is T1, Tyrosyl-DNA phosphodiesterase 1. As to the kind of experiment: Inhibition of recombinant TDP1 (unknown origin) assessed as substrate cleavage using 5'-Cy5-GATCTAAAAGACTT-pY-3' DNA substrate measured after 15 mins by gel-based assay.
For assay [3], the system named is HCT-116. As to the kind of experiment: Radiosensitizing activity in human HCT-116 cells assessed as induction of 2 GY ionizing radiation (IR) induced cell killing effect. Type of assay: functional, cell-based.
The subject of assay [4] is HCT-116. Description: Radiosensitizing activity in human HCT-116 cells assessed as sensitization of 2 GY ionizing radiation (IR) induced cell killing effect at 0.2 uM relative to control. Type of assay: functional.
Assay [5] concerns HCT-116. Description: Synergistic cytotoxicity against human HCT116 cells assessed as combination index at 0.5 uM incubated for 48 hrs in presence of 2GY ionizing radiation (IR). Type of assay: functional.
Assay [6] has as its system HCT-116. As to the kind of experiment: Cytotoxicity against human HCT116 cells assessed as cell killing at 0.2 uM relative to control. Type of assay: functional.
Assay [7] relates to HCT-116. Description: Cytotoxicity against human HCT116 cells assessed as cell killing at 0.1 uM relative to control. In kind it is functional.

T1 sequence (Q9NUW8 whole entry): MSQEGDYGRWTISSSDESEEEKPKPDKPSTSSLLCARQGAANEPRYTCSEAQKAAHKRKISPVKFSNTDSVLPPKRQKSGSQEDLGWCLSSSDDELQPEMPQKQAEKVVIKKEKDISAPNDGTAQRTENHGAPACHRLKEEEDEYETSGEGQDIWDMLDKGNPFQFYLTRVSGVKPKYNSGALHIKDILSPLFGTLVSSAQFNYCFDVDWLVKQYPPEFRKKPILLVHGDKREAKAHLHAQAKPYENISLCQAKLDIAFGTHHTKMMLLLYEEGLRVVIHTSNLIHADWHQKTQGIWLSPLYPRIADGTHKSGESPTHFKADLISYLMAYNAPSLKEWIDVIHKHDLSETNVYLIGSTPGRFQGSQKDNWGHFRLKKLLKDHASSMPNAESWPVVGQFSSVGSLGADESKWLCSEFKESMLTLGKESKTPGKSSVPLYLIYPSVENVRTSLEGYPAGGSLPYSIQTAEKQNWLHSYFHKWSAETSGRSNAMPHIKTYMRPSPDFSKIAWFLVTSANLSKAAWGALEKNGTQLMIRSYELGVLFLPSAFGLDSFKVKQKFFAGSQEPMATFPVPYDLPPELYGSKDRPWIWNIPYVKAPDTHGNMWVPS

For `COc1cc2c(cc1OCCn1ccnc1)c(=O)n(CCN(C)C)c1c3cc4c(cc3ccc21)OCO4`, the inhibition entry in assay [1] is “inactive”.

Turning to `COc1cc2c(=O)n(CCN(C)C)c3c4cc5c(cc4ccc3c2cc1OCCc1ccccc1)OCO5`, the inhibition result in assay [1] is “inactive”.

By IC50 is commonly meant the concentration that inhibits the measured activity by half. For `COc1cc2c(cc1OCCCN1CCOCC1)c(=O)n(CCN(C)C)c1c3cc4c(cc3ccc21)OCO4`, in assay [2], the IC50 worked out at 17 µM.

For the compound `COc1cc2c(cc1OCCCN1CCN(C)CC1)c(=O)n(CCN(C)C)c1c3cc4c(cc3ccc21)OCO4`, the 50% inhibitory concentration (IC50) in assay [2] turned out to be 31 µM.

`CCN(CC)CCOc1cc2c(cc1OC)c(=O)n(CCN(C)C)c1c3cc4c(cc3ccc21)OCO4`: the half-inhibitory concentration (IC50) in assay [2] was determined as 43 µM.

For the compound `CCN(CC)CCCOc1cc2c(=O)n(CCN(C)C)c3c4cc5c(cc4ccc3c2cc1OC)OCO5`, the IC50 in assay [2] was 6.4 µM.

Turning to `COc1cc2c(=O)n(CCN(C)C)c3c4cc5c(cc4ccc3c2cc1OCCCN1CCCC1)OCO5`, the outcome in the assay with HCT-116 [3] was Active. Also, the IC50 in assay [2] amounted to 3.6 µM.

`CCCCN(CCCC)CCCOc1cc2c(cc1OC)c(=O)n(CCN(C)C)c1c3cc4c(cc3ccc21)OCO4`: the half-inhibitory concentration (IC50) in assay [2] is 31 µM.

`COc1cc2c(=O)n(CCN(C)C)c3c4cc5c(cc4ccc3c2cc1OCCCN1CCN(C)CC1)OCO5`: the outcome with HCT-116 [3] was Active. Besides, in assay [2], the IC50 worked out at 7.8 µM.

Take `COc1cc2c(cc1OCCN1CCCC1)c(=O)n(CCN(C)C)c1c3cc4c(cc3ccc21)OCO4`: the half-maximal inhibitory concentration (IC50) in assay [2] amounted to 29 µM.

Consider `COc1cc2c(cc1OCCCN1CCCC1)c(=O)n(CCN(C)C)c1c3cc4c(cc3ccc21)OCO4`, for which the outcome with HCT-116 [3] was Active. The IC50 in assay [2] is 5.4 µM.

As for `COc1cc2c(cc1OCCN1CCCCC1)c(=O)n(CCN(C)C)c1c3cc4c(cc3ccc21)OCO4`, the IC50 in assay [2] came out at 16 µM.

On to `COc1cc2c(=O)n(CCN(C)C)c3c4cc5c(cc4ccc3c2cc1OCCn1ccnc1)OCO5`, for which the half-maximal inhibitory concentration (IC50) in assay [2] was 33 µM.

`COc1cc2c(cc1OCCN(C)C)c(=O)n(CCN(C)C)c1c3cc4c(cc3ccc21)OCO4`: in assay [2], the 50% inhibitory concentration (IC50) came out at 59 µM.

Turning to `COc1cc2c(=O)n(CCN(C)C)c3c4cc5c(cc4ccc3c2cc1OCCN1CCN(C)CC1)OCO5`, the result with HCT-116 [3] was Active. For the same compound, the half-maximal inhibitory concentration (IC50) in assay [2] was determined as 6 µM.

Consider `CCN(CC)C(=O)COc1cc2c(cc1OC)c(=O)n(CCN(C)C)c1c3cc4c(cc3ccc21)OCO4`, for which the inhibition entry in assay [1] was “inactive”.

Consider `CCN(CC)CCOc1cc2c(=O)n(CCN(C)C)c3c4cc5c(cc4ccc3c2cc1OC)OCO5`, for which the half-inhibitory concentration (IC50) in assay [2] is 20 µM.

On to `CCN(CC)CCCOc1cc2c(cc1OC)c(=O)n(CCN(C)C)c1c3cc4c(cc3ccc21)OCO4`, for which the outcome in the assay with HCT-116 [3] was Active. Also, the 50% inhibitory concentration (IC50) in assay [2] was 10 µM.

Regarding `COc1cc2c(=O)n(CCN(C)C)c3c4cc5c(cc4ccc3c2cc1OCCN(C)C)OCO5`, the half-inhibitory concentration (IC50) in assay [2] worked out at 12 µM.

Regarding `COc1cc2c(cc1OCCCn1ccnc1)c(=O)n(CCN(C)C)c1c3cc4c(cc3ccc21)OCO4`, in assay [1], the inhibition entry was “inactive”.

In the case of `COc1cc2c(=O)n(CCN(C)C)c3c4cc5c(cc4ccc3c2cc1OCCCN1CCOCC1)OCO5`, the inhibition result in assay [1] is “inactive”.

Consider `COc1cc2c(=O)n(CCN(C)C)c3c4cc5c(cc4ccc3c2cc1OCCCN(C)C)OCO5`, for which, in the assay on HCT-116 [3], the outcome was Active. Besides, the half-inhibitory concentration (IC50) in assay [2] was 4.7 µM.

On to `COc1cc2c(=O)n(CCN(C)C)c3c4cc5c(cc4ccc3c2cc1OCCCN1CCSCC1)OCO5`, for which the result in the assay with HCT-116 [3] was Active. The Activity with HCT-116 [4] was 93%; with HCT-116 [6], 73%; in the assay on HCT-116 [7], 19%. Further, in the assay on HCT-116 [5], the CI was less than 0.3. Also, the IC50 in assay [2] is 5.7 µM.

Turning to `COc1cc2c(=O)n(CCN(C)C)c3c4cc5c(cc4ccc3c2cc1OCC(=O)N1CCOCC1)OCO5`, the inhibition entry in assay [1] is “inactive”.

In the case of `COc1cc2c(=O)n(CCN(C)C)c3c4cc5c(cc4ccc3c2cc1OCCCNC12CC3CC(CC(C3)C1)C2)OCO5`, in the assay with HCT-116 [3], the result was Active. The IC50 in assay [2] turned out to be 1.6 µM.

For the compound `COc1cc2c(cc1OCCN1CCN(C)CC1)c(=O)n(CCN(C)C)c1c3cc4c(cc3ccc21)OCO4`, in assay [2], the IC50 was 46 µM.

On to `COc1cc2c(=O)n(CCN(C)C)c3c4cc5c(cc4ccc3c2cc1OCCN1CCCCC1)OCO5`, for which the 50% inhibitory concentration (IC50) in assay [2] worked out at 22 µM.

Regarding `CCCCN(CCCC)CCOc1cc2c(cc1OC)c(=O)n(CCN(C)C)c1c3cc4c(cc3ccc21)OCO4`, in assay [2], the IC50 turned out to be 23 µM.

As to `COc1cc2c(=O)n(CCN(C)C)c3c4cc5c(cc4ccc3c2cc1OCCCc1ccccc1)OCO5`, in assay [1], the inhibition result is “inactive”.

Take `COc1cc2c(cc1OCCCN1CCCCC1)c(=O)n(CCN(C)C)c1c3cc4c(cc3ccc21)OCO4`: the outcome in the assay with HCT-116 [3] was Active. For the same compound, the IC50 in assay [2] was determined as 7.4 µM.

Turning to `COc1cc2c(cc1OCCCN(C)C)c(=O)n(CCN(C)C)c1c3cc4c(cc3ccc21)OCO4`, in the assay on HCT-116 [3], the result was Active. Also, the IC50 in assay [2] was found to be 9.3 µM.

Turning to `COc1cc2c(=O)n(CCN(C)C)c3c4cc5c(cc4ccc3c2cc1OCC(=O)N(C)C)OCO5`, in assay [1], the inhibition entry was “inactive”.

Consider `COc1cc2c(=O)n(CCN(C)C)c3c4cc5c(cc4ccc3c2cc1OCCN1CCCC1)OCO5`, for which, in assay [1], the inhibition entry is “inactive”.

Consider `COc1cc2c(=O)n(CCN(C)C)c3c4cc5c(cc4ccc3c2cc1OCCCN1CCCCC1)OCO5`, for which the IC50 in assay [2] was 6.9 µM.

On to `COc1cc2c(=O)n(CCN(C)C)c3c4cc5c(cc4ccc3c2cc1OCCN1CCSCC1)OCO5`, for which the inhibition entry in assay [1] is “inactive”.

Regarding `COc1cc2c(cc1OCCN1CCOCC1)c(=O)n(CCN(C)C)c1c3cc4c(cc3ccc21)OCO4`, in assay [1], the inhibition entry is “inactive”.

On to `COc1cc2c(=O)n(CCN(C)C)c3c4cc5c(cc4ccc3c2cc1OCCCn1ccnc1)OCO5`, for which the inhibition result in assay [1] is “inactive”.

The record behind these values is ChEMBL document CHEMBL6134907, “Synthesis of 5,9- and 5,8-Diaminoalkoxy Substituted Benzophenanthridinone Analogues as Tyrosyl-DNA Phosphodiesterase 1 Inhibitors and Their Radiosensitizing Activity” (J Med Chem, 2025).
